Columns and labels:
[1] = target: T1, Human Factor XIIa (hFXIIa) (Homo sapiens, UniProt P00748); assay: Determination of Human Factor XIIa (hFXIIa) inhibition, fluorogenic substrate IC50 assay; assay type: biochemical; details: fluorogenic substrate H-DPro-Phe-Arg-AFC at Km, 25° C., read-out: Human FXIIa IC50
T1 construct: purchased Enzyme Research Laboratories
T1 sequence (P00748 373-615 limits assumed): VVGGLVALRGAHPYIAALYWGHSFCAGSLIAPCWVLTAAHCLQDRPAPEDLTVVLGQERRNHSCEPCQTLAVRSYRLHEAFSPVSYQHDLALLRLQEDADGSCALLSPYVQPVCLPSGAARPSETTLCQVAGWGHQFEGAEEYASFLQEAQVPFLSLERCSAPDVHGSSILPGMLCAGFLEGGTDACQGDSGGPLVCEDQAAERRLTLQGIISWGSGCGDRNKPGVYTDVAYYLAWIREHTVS
T1 sequence (P00748 20-372 partner limits assumed): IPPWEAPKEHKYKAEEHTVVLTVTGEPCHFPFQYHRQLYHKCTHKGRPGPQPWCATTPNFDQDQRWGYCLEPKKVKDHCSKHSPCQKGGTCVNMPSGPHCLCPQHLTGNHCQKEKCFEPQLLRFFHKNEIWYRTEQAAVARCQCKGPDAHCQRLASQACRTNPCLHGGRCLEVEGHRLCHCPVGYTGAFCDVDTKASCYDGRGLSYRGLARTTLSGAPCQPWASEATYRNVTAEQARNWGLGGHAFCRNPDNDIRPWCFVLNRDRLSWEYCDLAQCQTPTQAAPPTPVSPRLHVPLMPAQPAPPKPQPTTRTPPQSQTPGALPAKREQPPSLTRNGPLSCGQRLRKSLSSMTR
Experimental: Determination of Human Factor XIIa (hFXIIa) inhibition
The Km for the cleavage of the substrate by hFXIIa was determined by standard transformation of the Michaelis-Menten equation, with subsequent inhibition assays performed at substrate Km concentration.

[2] = target: FXa (Homo sapiens, UniProt P00742); assay: Related protease inhibition: FXa, fluorogenic substrate; assay type: biochemical; details: fluorogenic substrate at Km, 25° C.; H1-H3 = % activity at 40 μM
Chain of FXa (P00742 235-488 limits assumed): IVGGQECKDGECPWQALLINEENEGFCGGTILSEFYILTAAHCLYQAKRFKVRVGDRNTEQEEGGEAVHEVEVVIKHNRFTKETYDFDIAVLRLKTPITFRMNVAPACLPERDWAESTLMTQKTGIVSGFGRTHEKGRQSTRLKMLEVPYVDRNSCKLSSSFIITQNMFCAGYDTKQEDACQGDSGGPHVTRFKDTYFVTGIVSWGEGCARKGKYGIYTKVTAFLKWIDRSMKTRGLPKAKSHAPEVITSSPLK
Chain of FXa (P00742 41-179 partner limits assumed): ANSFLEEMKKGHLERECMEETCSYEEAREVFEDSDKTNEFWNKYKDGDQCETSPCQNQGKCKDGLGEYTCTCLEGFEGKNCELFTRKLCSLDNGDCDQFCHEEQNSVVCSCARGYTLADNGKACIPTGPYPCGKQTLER
Experimental: Human serine protease enzyme Plasma Kallikrein, KLK1, FXa, Plasmin, Thrombin and Trypsin were assayed for enzymatic activity using an appropriate fluorogenic substrate at Km concentration, FXIa at fixed substrate concentration of 100 μM and various concentrations of the test compound.

SMILES: O=C(NCc1ccncc1F)c1nn(-c2cccc(Cl)c2)c2c1CCN(c1ccc3c(c1)CN(CCO)CC3)C2=O [Example 1161, 1-(3-chlorophenyl)-N-((3-fluoropyridin-4-yl)methyl)-6-(2-(2-hydroxyethyl)-1,2,3,4-tetrahydroisoquinolin-7-yl)-7-oxo-4,5,6,7-tetrahydro-1H-pyrazolo[3,4-c]pyridine-3-carboxamide]
- IC50 [1]: 10 to 100 nM
- IC50 [2]: > 40000 nM

SMILES: CS(=O)(=O)CCN1CCc2ccc(N3CCc4c(C(=O)NCC5CC5)nn(-c5cccc(Cl)c5)c4C3=O)cc2C1 [Example 1176, 1-(3-chlorophenyl)-N-(cyclopropylmethyl)-6-(2-(2-(methylsulfonyl)ethyl)-1,2,3,4-tetrahydroisoquinolin-7-yl)-7-oxo-4,5,6,7-tetrahydro-1H-pyrazolo[3,4-c]pyridine-3-carboxamide]
- IC50 [1]: 300 to 1000 nM
- IC50 [2]: > 40000 nM

SMILES: Cc1ccncc1CNC(=O)c1nn(-c2cccc(Cl)c2)c2c1CCN(c1cccc(CN3CCCCC3)c1)C2=O [Example 1177, 1-(3-chlorophenyl)-N-((4-methylpyridin-3-yl)methyl)-7-oxo-6-(3-(piperidin-1-ylmethyl)phenyl)-4,5,6,7-tetrahydro-1H-pyrazolo[3,4-c]pyridine-3-carboxamide]
- IC50 [1]: 10 to 100 nM
- IC50 [2]: > 40000 nM

SMILES: CN1CCc2ccc(N3CCc4c(C(=O)NC5COCC5O)nn(-c5cccc(Cl)c5)c4C3=O)cc2C1=O (stereo not shown) [Example 1179, 1-(3-chlorophenyl)-N-(4-hydroxytetrahydrofuran-3-yl)-6-(2-methyl-1-oxo-1,2,3,4-tetrahydroisoquinolin-7-yl)-7-oxo-4,5,6,7-tetrahydro-1H-pyrazolo[3,4-c]pyridine-3-carboxamide]
- IC50 [1]: 300 to 1000 nM
- IC50 [2]: > 40000 nM

SMILES: CN1CCc2ccc(N3CCc4c(C(=O)NC(CO)C5CCOC5)nn(-c5cccc(Cl)c5)c4C3=O)cc2C1=O (stereo not shown) [Example 1180, 1-(3-chlorophenyl)-N-(2-hydroxy-1-(tetrahydrofuran-3-yl)ethyl)-6-(2-methyl-1-oxo-1,2,3,4-tetrahydroisoquinolin-7-yl)-7-oxo-4,5,6,7-tetrahydro-1H-pyrazolo[3,4-c]pyridine-3-carboxamide]
- IC50 [1]: 300 to 1000 nM
- IC50 [2]: > 40000 nM

SMILES: Cc1nnc(CNC(=O)c2nn(-c3cccc(Cl)c3)c3c2CCN(c2ccc4c(c2)C(=O)N(C)CC4)C3=O)s1 [Example 1181, 1-(3-chlorophenyl)-N-((5-methyl-1,3,4-thiadiazol-2-yl)methyl)-6-(2-methyl-1-oxo-1,2,3,4-tetrahydroisoquinolin-7-yl)-7-oxo-4,5,6,7-tetrahydro-1H-pyrazolo[3,4-c]pyridine-3-carboxamide]
- IC50 [1]: 300 to 1000 nM
- IC50 [2]: > 40000 nM

SMILES: Cc1noc(C)c1CNC(=O)c1nn(-c2cccc(Cl)c2)c2c1CCN(c1ccc3c(c1)C(=O)N(C)CC3)C2=O [Example 1185, 1-(3-chlorophenyl)-N-((3,5-dimethylisoxazol-4-yl)methyl)-6-(2-methyl-1-oxo-1,2,3,4-tetrahydroisoquinolin-7-yl)-7-oxo-4,5,6,7-tetrahydro-1H-pyrazolo[3,4-c]pyridine-3-carboxamide]
- IC50 [1]: 300 to 1000 nM
- IC50 [2]: > 40000 nM

SMILES: COc1cc(CNC(=O)c2nn(-c3cccc(Cl)c3)c3c2CCN(c2ccc4c(c2)C(=O)N(C)CC4)C3=O)nn1C [Example 1186, 1-(3-chlorophenyl)-N-((5-methoxy-1-methyl-1H-pyrazol-3-yl)methyl)-6-(2-methyl-1-oxo-1,2,3,4-tetrahydroisoquinolin-7-yl)-7-oxo-4,5,6,7-tetrahydro-1H-pyrazolo[3,4-c]pyridine-3-carboxamide]
- IC50 [1]: 100 to 300 nM
- IC50 [2]: 10000 to 40000 nM

SMILES: CN1CCc2ccc(N3CCc4c(C(=O)NC(CO)c5cccnc5)nn(-c5cccc(Cl)c5)c4C3=O)cc2C1=O (stereo not shown) [Example 1187, 1-(3-chlorophenyl)-N-(2-hydroxy-1-(pyridin-3-yl)ethyl)-6-(2-methyl-1-oxo-1,2,3,4-tetrahydroisoquinolin-7-yl)-7-oxo-4,5,6,7-tetrahydro-1H-pyrazolo[3,4-c]pyridine-3-carboxamide]
- IC50 [1]: 300 to 1000 nM
- IC50 [2]: > 40000 nM

SMILES: CC(=O)N1CCc2ccc(N3CCc4c(C(=O)NCc5cnccc5C)nn(-c5cccc(Cl)c5)c4C3=O)cc21 [Example 1188, 6-(1-acetylindolin-6-yl)-1-(3-chlorophenyl)-N-((4-methylpyridin-3-yl)methyl)-7-oxo-4,5,6,7-tetrahydro-1H-pyrazolo[3,4-c]pyridine-3-carboxamide]
- IC50 [1]: 100 to 300 nM
- IC50 [2]: > 40000 nM

SMILES: Cc1cc(C)c(CNC(=O)c2nn(-c3cccc(Cl)c3)c3c2CCN(c2ccc4c(c2)C(=O)N(C)CC4)C3=O)cn1 [Example 1189, 1-(3-chlorophenyl)-N-((4,6-dimethylpyridin-3-yl)methyl)-6-(2-methyl-1-oxo-1,2,3,4-tetrahydroisoquinolin-7-yl)-7-oxo-4,5,6,7-tetrahydro-1H-pyrazolo[3,4-c]pyridine-3-carboxamide]
- IC50 [1]: 10 to 100 nM
- IC50 [2]: > 40000 nM

SMILES: Cc1ncc(CNC(=O)c2nn(-c3cccc(Cl)c3)c3c2CCN(c2ccc4c(c2)C(=O)N(C)CC4)C3=O)s1 [Example 1193, 1-(3-chlorophenyl)-6-(2-methyl-1-oxo-1,2,3,4-tetrahydroisoquinolin-7-yl)-N-((2-methylthiazol-5-yl)methyl)-7-oxo-4,5,6,7-tetrahydro-1H-pyrazolo[3,4-c]pyridine-3-carboxamide]
- IC50 [1]: 100 to 300 nM
- IC50 [2]: > 40000 nM

SMILES: Cc1ncc(CNC(=O)c2nn(-c3cccc(Cl)c3)c3c2CCN(c2ccc4c(c2)C(=O)N(C)CC4)C3=O)o1 [Example 1194, 1-(3-chlorophenyl)-6-(2-methyl-1-oxo-1,2,3,4-tetrahydroisoquinolin-7-yl)-N-((2-methyloxazol-5-yl)methyl)-7-oxo-4,5,6,7-tetrahydro-1H-pyrazolo[3,4-c]pyridine-3-carboxamide]
- IC50 [1]: 300 to 1000 nM
- IC50 [2]: > 40000 nM

SMILES: CN(C)C(=O)c1cccc(N2CCc3c(C(=O)NCC4CC4)nn(-c4cccc(Cl)c4)c3C2=O)c1 [Example 1195, 1-(3-Chlorophenyl)-N-(cyclopropylmethyl)-6-[3-(dimethylcarbamoyl)phenyl]-7-oxo-4,5-dihydropyrazolo[3,4-c]pyridine-3-carboxamide]
- IC50 [1]: 3000 to 10000 nM
- IC50 [2]: > 40000 nM

SMILES: CN1CCc2ccc(N3CCc4c(C(=O)NC5CCOC5(C)C)nn(-c5cccc(Cl)c5)c4C3=O)cc2C1=O (stereo not shown) [Example 1197, 1-(3-chlorophenyl)-N-(2,2-dimethyltetrahydrofuran-3-yl)-6-(2-methyl-1-oxo-1,2,3,4-tetrahydroisoquinolin-7-yl)-7-oxo-4,5,6,7-tetrahydro-1H-pyrazolo[3,4-c]pyridine-3-carboxamide]
- IC50 [1]: 300 to 1000 nM
- IC50 [2]: > 40000 nM

SMILES: CN1CCc2ccc(N3CCc4c(C(=O)NCC5CCOC5)nn(-c5cccc(Cl)c5)c4C3=O)cc2C1=O (stereo not shown) [Example 1198, 1-(3-chlorophenyl)-6-(2-methyl-1-oxo-1,2,3,4-tetrahydroisoquinolin-7-yl)-7-oxo-N-((tetrahydrofuran-3-yl)methyl)-4,5,6,7-tetrahydro-1H-pyrazolo[3,4-c]pyridine-3-carboxamide]
- IC50 [1]: 300 to 1000 nM
- IC50 [2]: > 40000 nM

SMILES: Cc1cc(CNC(=O)c2nn(-c3cccc(Cl)c3)c3c2CCN(c2ccc4c(c2)C(=O)N(C)CC4)C3=O)nn1C [Example 1199, 1-(3-chlorophenyl)-N-((1,5-dimethyl-1H-pyrazol-3-yl)methyl)-6-(2-methyl-1-oxo-1,2,3,4-tetrahydroisoquinolin-7-yl)-7-oxo-4,5,6,7-tetrahydro-1H-pyrazolo[3,4-c]pyridine-3-carboxamide]
- IC50 [1]: 100 to 300 nM
- IC50 [2]: 10000 to 40000 nM

SMILES: Cc1cc(CNC(=O)c2nn(-c3cccc(Cl)c3)c3c2CCN(c2ccc4c(c2)C(=O)N(C)CC4)C3=O)n[nH]1 [Example 1200, 1-(3-chlorophenyl)-6-(2-methyl-1-oxo-1,2,3,4-tetrahydroisoquinolin-7-yl)-N-((5-methyl-1H-pyrazol-3-yl)methyl)-7-oxo-4,5,6,7-tetrahydro-1H-pyrazolo[3,4-c]pyridine-3-carboxamide]
- IC50 [1]: 100 to 300 nM
- IC50 [2]: 10000 to 40000 nM

SMILES: Cc1cncc(CNC(=O)c2nn(-c3cccc(Cl)c3)c3c2CCN(c2ccc4c(c2)C(=O)N(C)CC4)C3=O)c1 [Example 1201, 1-(3-chlorophenyl)-6-(2-methyl-1-oxo-1,2,3,4-tetrahydroisoquinolin-7-yl)-N-((5-methylpyridin-3-yl)methyl)-7-oxo-4,5,6,7-tetrahydro-1H-pyrazolo[3,4-c]pyridine-3-carboxamide]
- IC50 [1]: 100 to 300 nM
- IC50 [2]: 10000 to 40000 nM

SMILES: CN1CCc2ccc(N3CCc4c(C(=O)NCc5cccnn5)nn(-c5cccc(Cl)c5)c4C3=O)cc2C1=O [Example 1202, 1-(3-chlorophenyl)-6-(2-methyl-1-oxo-1,2,3,4-tetrahydroisoquinolin-7-yl)-7-oxo-N-(pyridazin-3-ylmethyl)-4,5,6,7-tetrahydro-1H-pyrazolo[3,4-c]pyridine-3-carboxamide]
- IC50 [1]: 300 to 1000 nM
- IC50 [2]: > 40000 nM

From patent US20260132132A1, “3A,4,5,6-TETRAHYDRO-1 H-PYRAZOLO[3,4-C]PYRIDIN-7(7AH)-ONE DERIVATIVES AS FACTOR XIIA INHIBITORS” (KALVISTA PHARMACEUTICALS LIMITED, priority 2022, published 2026)
